Measured values as given in the CombiSolv-Exp solvation set (Vermeire and Green 2021).

Assay: solvent given as SMILES

CC(C)C(=O)CC(=O)C(C)C
Conditions | solvation free energy, 298 K [kcal/mol]
in O | -4.08

CC(=O)c1cccnc1
Conditions | solvation free energy, 298 K [kcal/mol]
in O | -8.26

CC(C)Cc1ccccc1
Conditions | solvation free energy, 298 K [kcal/mol]
in O | 0.19

COc1cccc(O)c1
Conditions | solvation free energy, 298 K [kcal/mol]
in O | -7.67

Cc1ccc(C)c(O)c1
Conditions | solvation free energy, 298 K [kcal/mol]
in CCCCCC | -6.46
in CCCCCCC | -6.44
in CCCCCCCC | -6.44
in Cc1ccc(C)cc1 | -7.72
in Cc1cccc(C)c1 | -7.76
in Cc1ccccc1C | -7.8
in O | -5.92

Cc1ccncc1C
Conditions | solvation free energy, 298 K [kcal/mol]
in O | -5.22

CCOC(C)=O
Conditions | solvation free energy, 298 K [kcal/mol]
in Brc1cccc2ccccc12 | -3.95
in C1CCOC1 | -4.56
in C1COCCO1 | -4.49
in C=CCCCCCCCCCCCCCC | -3.23
in CC(=O)N(C)C | -4.23
in CC(=O)OCc1ccccc1 | -4.29
in CC(C)CC(C)(C)C | -3.53
in CC(C)CCCC(C)CCCC(C)CCCCC(C)CCCC(C)CCCC(C)C | -3.2
in CC(C)O | -3.9
in CCC(C)=O | -4.49
in CCCC=O | -4.49
in CCCCC(CC)COC(=O)CCCCC(=O)OCC(CC)CCCC | -3.73
in CCCCCC | -3.61
in CCCCCC=CCC=CCCCCCCCC(=O)O | -3.67
in CCCCCCC | -3.53
in CCCCCCCC | -3.4
in CCCCCCCCC=CCCCCCCCC(=O)OCC(COC(=O)CCCCCCCC=CCCCCCCCC)OC(=O)CCCCCCCC=CCCCCCCCC | -3.72
in CCCCCCCCCC | -3.28
in CCCCCCCCCCCCCC | -3.24
in CCCCCCCCCCCCCCCC | -3.23
in CCCCCCCCO | -3.69
in CCCCCO | -3.87
in CCCCCl | -4.32
in CCCCN(C=O)CCCC | -3.96
in CCCCO | -3.97
in CCO | -4.06
in CCOC(=O)c1ccccc1C(=O)OCC | -3.94
in CCOCCO | -4.14
in CCOP(=O)(OCC)OCC | -4.13
in CN1CCCC1=O | -4.16
in CN1CCCCC1=O | -4.16
in CN1CCN(C)C1=O | -3.98
in CN(C)C=O | -4.32
in CNC(C)=O | -4.04
in CO | -4.38
in COP(=O)(OC)OC | -4.28
in CS(C)=O | -3.88
in Cc1ccc(C)cc1 | -4.21
in Cc1cccc(C)c1 | -4.15
in ClCCCl | -4.71
in ClCCl | -5.22
in Clc1ccccc1 | -4.43
in NC=O | -3.61
in O | -2.95
in O=C1CCCCC1 | -4.33
in O=CN1CCOCC1 | -3.89
in OCCOCCO | -3.53
in [2H]O[2H] | -3.02
in c1ccc2ncccc2c1 | -4.07

ClC1CCCCC1
Conditions | solvation free energy, 298 K [kcal/mol]
in O | -0.93

Cc1cccnc1C
Conditions | solvation free energy, 298 K [kcal/mol]
in O | -4.82

Brc1ccc(Br)cc1
Conditions | solvation free energy, 298 K [kcal/mol]
in CC(C)(C)O | -6.86
in CC(C)CCO | -7.01
in CC(C)CO | -6.92
in CCC(C)O | -6.94
in CCCC(C)O | -6.98
in CCCCCC | -7.25
in CCCCCCC | -7.55
in CCCCCCCCC=CCCCCCCCC(=O)OCC(COC(=O)CCCCCCCC=CCCCCCCCC)OC(=O)CCCCCCCC=CCCCCCCCC | -7.01
in CCCCCCCCO | -7.11
in CCCCOCCCC | -7.74
in CCOCC | -8.21
in COC(C)(C)C | -7.73
in ClC(Cl)(Cl)Cl | -7.9

CCCCCCCCCCCCCCCCCCCC
Conditions | solvation free energy, 298 K [kcal/mol]
in CC(=O)N(C)C | -13.6
in CC(C)(C)O | -12.4
in CCC(C)=O | -12.6
in CCCCCCCCC=CCCCCCCCC(=O)OCC(COC(=O)CCCCCCCC=CCCCCCCCC)OC(=O)CCCCCCCC=CCCCCCCCC | -12.5
in CCCCOC(C)=O | -12.9
in CCO | -11.4
in CN(C)C=O | -13.6
in COC(C)(C)C | -13.5
in O | 4.52

Cc1ccccc1C(C)C
Conditions | solvation free energy, 298 K [kcal/mol]
in O | -0.82

C1CCCNCC1
Conditions | solvation free energy, 298 K [kcal/mol]
in C1CCCCC1 | -5.66

CCOCCO
Conditions | solvation free energy, 298 K [kcal/mol]
in CCCCCC | -4.01
in CCCCCCC | -3.85
in COC(C)=O | -5.89
in ClC(Cl)(Cl)Cl | -4.87
in ClCCl | -6.06
in O | -6.7

CCC(C)C(C)C (configuration not stated)
Conditions | solvation free energy, 298 K [kcal/mol]
in C=CCCCCCCCCCCCCCC | -3.97
in CC#N | -3.2

C=C(C)C(=O)O
Conditions | solvation free energy, 298 K [kcal/mol]
in O | -6.08

CC(=O)OCC(C)C
Conditions | solvation free energy, 298 K [kcal/mol]
in CCCCCCCCCCCCCCCC | -4.32
in CCCCCCCCO | -4.71
in O | -2.41
in [2H]O[2H] | -2.47

CCCCCCCCBr
Conditions | solvation free energy, 298 K [kcal/mol]
in O | 0.52

COc1ccc(N)cc1
Conditions | solvation free energy, 298 K [kcal/mol]
in CC(C)CCO | -8.92
in O | -7.54

COC(=O)C(F)(F)F
Conditions | solvation free energy, 298 K [kcal/mol]
in O | -1.1

COC(OC)(OC)c1ccccc1
Conditions | solvation free energy, 298 K [kcal/mol]
in O | -4.04

O=C(O)c1cccc(O)c1
Conditions | solvation free energy, 298 K [kcal/mol]
in O | -9.55

CCCCCOCCCCC
Conditions | solvation free energy, 298 K [kcal/mol]
in CCCCCCCCCCCCCCCC | -6.4
in CCCCCCCCO | -6.46

C=C(C)C
Conditions | solvation free energy, 298 K [kcal/mol]
in CC(C)(C)O | -2.03
in CC(C)=O | -2.37
in CC(C)CCO | -1.99
in CC(C)CO | -1.98
in CC(C)O | -1.98
in CCC(C)(C)O | -2.09
in CCC(C)CO | -1.98
in CCC(C)O | -1.99
in CCC(O)CC | -2.01
in CCCC(C)O | -2.01
in CCCCC | -2.49
in CCCCCC | -2.43
in CCCCCCC | -2.44
in CCCCCCCC | -2.41
in CCCCCCCCC | -2.39
in CCCCCCCCCC | -2.36
in CCCCCO | -2.01
in CCCCO | -2.17
in CCCO | -2.01
in CCOC(C)=O | -2.55
in CN1CCCC1=O | -1.8
in CN(C)C=O | -1.98
in Cc1ccc(C)cc1 | -2.32
in Cc1cccc(C)c1 | -2.33
in Cc1ccccc1C | -2.31
in ClC(Cl)(Cl)Cl | -2.44
in Ic1ccccc1 | -1.91
in N#Cc1ccccc1 | -1.97
in O | 1.17
in O=CN1CCOCC1 | -1.36
in c1ccccc1 | -2.32

Nc1ccc(S(=O)(=O)Nc2ccccn2)cc1
Conditions | solvation free energy, 298 K [kcal/mol]
in O | -18.7

FC(F)(F)F
Conditions | solvation free energy, 298 K [kcal/mol]
in Brc1ccccc1 | 1.57
in C1CCOC1 | 1
in C1COCCO1 | 1.38
in CC(C)(C)O | 0.8
in CC(C)CC(C)(C)C | 0.56
in CC(C)CO | 1
in CCC(C)O | 1.01
in CCCCCC | 0.49
in CCCCCCC | 0.62
in CCCCCCCC | 0.72
in CCCCCCCC(=O)OCC(COC(=O)CCCCCCC)OC(=O)CCCCCCC | 1.4
in CCCCCCCCC | 0.8
in CCCCCCCCCC | 0.86
in CCCCCCCCCCC | 0.92
in CCCCCCCCCCCC | 0.97
in CCCCCCCCCCCCC | 1.02
in CCCCCCCCCCCCCC | 1.06
in CCCCCCCCCCCCCCC | 1.1
in CCCCCCCCCCCCCCCC | 1.11
in CCCCCCCCCCCO | 1.39
in CCCCCCCCCCO | 1.36
in CCCCCCCCCO | 1.32
in CCCCCCCCO | 1.27
in CCCCCCCO | 1.25
in CCCCCCO | 1.21
in CCCCCO | 1.16
in CCCCO | 1.1
in CCCO | 1.04
in CCO | 0.98
in CN1CCCC1=O | 1.8
in CN(C)C=O | 1.56
in CO | 1
in Cc1ccc(C)cc1 | 1.11
in Cc1cccc(C)c1 | 1.13
in Cc1ccccc1C | 1.21
in ClC(Cl)(Cl)Cl | 0.82
in Clc1ccccc1 | 1.3
in O | 3.13
in O=C1CCCC1 | 1.36
in O=C1CCCCC1 | 1.41

CC(F)F
Conditions | solvation free energy, 298 K [kcal/mol]
in CC(C)(C)O | -1.42
in CC(C)CCO | -1.3
in CC(C)CO | -1.35
in CC(C)O | -1.5
in CCC(C)(C)O | -1.36
in CCC(C)CO | -1.23
in CCC(C)O | -1.32
in CCC(O)CC | -1.24
in CCCC(C)O | -1.21
in CCCCCCCC(=O)OCC(COC(=O)CCCCCCC)OC(=O)CCCCCCC | -1.37
in CCCCCCCCC | -1.08
in CCCCCCCCO | -1.07
in CCCCCO | -1.28
in CCCCO | -1.36
in CCCO | -1.49
in CN1CCCC1=O | -2.02
in CN(C)C=O | -2.11
in CO | -1.91
in Cc1ccc(C)cc1 | -1.62
in Cc1cccc(C)c1 | -1.63
in Cc1ccccc1C | -1.62
in O | -0.12
